Measurements reported in patent US12419890B2, “Administration of sumo-activating enzyme inhibitor and checkpoint inhibitors” (Takeda Pharmaceutical Company Limited, priority 2019, dated 2025).

Tested on: WEHI-3 syngeneic mouse myelomonocytic leukemia-derived subcutaneous tumor
Test: WEHI-3 Study 4: mouse WEHI-3 syngeneic tumor model, individual tumor volume
Type: in vivo
Settings: Compound I-263a 7.5 mg/kg IV BIWx3
Description: WEHI-3 Study 4: WEHI-3 is a mouse myelomonocytic leukemia cell line. WEHI-3 mouse syngeneic tumor model was generated by subcutaneous inoculation with 0.1×10^6 WEHI-3 cells (cell suspension) in 13 weeks old female BALB/c mice (Jackson Laboratory, 600 Main St, Bar Harbor, ME) in the flank. When the mean tumor volume reached approximately 50 mm^3, the animals were randomized into one vehicle control and five treatment groups (n=8/group). Mice were then dosed with 20% HPbCD or Compound I-263a or anti-mouse PD-1 antibody or anti-mouse CTLA-4 antibody over a 21-day period. Tumor growth and body weight were measured twice per week during the treatment and post-treatment periods, and mice were humanely euthanized once they had reached their humane endpoint.
Study 4: A 1.01 mg/mL stock solution of Compound I-263a was formulated weekly in 20% HPβCD and administered intravenously (IV) based on exact animal body weight on each day of treatment, using a dosing volume of 10 mL/kg body weight. Final doses received were 7.5 mg/kg. Dosing volume for Compound I-263a was 0.2 mL. […]
Tumors were measured twice weekly using vernier calipers. Tumor volumes were calculated using standard equation: V=W^2×L/2, where V=volume, W=width, and L=length for the tumor. […] Tumor size and body weight were measured twice a week for the duration of the study. […]

**Q.** Which results are given for `Cc1sc(C(=O)c2cncnc2N[C@@H]2C[C@H](COS(N)(=O)=O)[C@@H](O)C2)cc1[C@@H]1NCCc2ccc(Cl)cc21` [Compound I-263a, [(1R,2S,4R)-4-{[5-({4-[(1R)-7-chloro-1,2,3,4-tetrahydroisoquinolin-1-yl]-5-methyl-2-thienyl}carbonyl)pyrimidin-4-yl]amino}-2-hydroxycyclopentyl]methyl sulfamate]?
**A.** effect on tumor growth (8 tumors/group): very little effect; slight tumor growth delays (delay to day 14, out of 8 implanted tumors): 2
